# Key:
# [1] = Inhibition of EGFR Del ex19 mutant in human PC9 cells assessed as suppression of cell proliferation
# [2] = Inhibition of EGFR L858R/T790M double mutant in human NCI-H1975 cells assessed as suppression of cell proliferation
# [3] = Inhibition of EGFR Del ex19/T790M double mutant in human PC9 cells assessed as suppression of cell proliferation
# [4] = Inhibition of EGFR Del ex19 mutant in human HCC827 cells assessed as suppression of cell proliferation
# [5] = Inhibition of wild type EGFR in human NCI-H1666 cells assessed as suppression of cell proliferation
structure (smiles),measurement,setting,value
"C=CC(=O)N1CC[C@@H](Oc2nc(Nc3ccc(N4CCC(N5CCN(C)CC5)CC4)cc3)c(C(N)=O)nc2CC)C1 [US9085540, 54]",IC50,[1],8 nM
same,IC50,[2],8 nM
same,IC50,[3],8 nM
same,IC50,[4],8 nM
same,IC50,[5],230 nM

# — BindingDB's records for doi:10.1016/j.bmcl.2016.02.067 (Pfizer, 2016)
